Results taken from publication PMC10180490, “New Indazol-Pyrimidine-Based Derivatives as Selective Anticancer Agents: Design, Synthesis, and In Silico Studies” (Molecules, 2023).

How the values were obtained:
[1] = system: breast cancer cells (MCF-7); assay: MTT cytotoxicity assay, MCF-7; type: cell-based; details: Homo sapiens, MCF7, MCF-7 cells, 48 h
Protocol: (§1) All of the synthesized compounds were screened for their cytotoxic effect against three different human cancer cells, namely breast cancer cells (MCF-7), lung cancer cells (A549), and colorectal adenocarcinoma cells (Caco2), using the MTT cytotoxic assay. […] Then, 3-[4,5-dimethylthiazol-2-yl]-2,5-diphenyl tetrazolium bromide (MTT) was added.

lung cancer cells (A549) = assay: MTT cytotoxicity assay, A549; type: cell-based, human
Protocol: as §1

[2] = system: colorectal adenocarcinoma cells (Caco2); assay: MTT cytotoxicity assay, Caco2; type: cell-based; details: Homo sapiens, Caco-2, 48 h
Protocol: as §1

[3] = Cytotoxicity toward normal cells MCF-10a; type: cell-based, human; details: human, MCF-10a mammary gland epithelial cells (normal), MCF-10a normal cell line
[4] = system: mammary gland epithelial cell line MCF-10a; assay: Cytotoxicity toward normal cells MCF-10a; type: cell-based, human; details: for SI (selectivity index): MCF-10a IC50 relative to MCF-7 IC50
MCF-7 cells [5] = assay: Cell cycle analysis by DNA flow cytometry; type: cell-based, human; details: MCF-7, 24 h; for increase in the percentage of cells in the G0-G1 phase: compared with the control (53.89%)
Protocol: An encouraging strategy for cancer therapy is targeting the cell cycle, according to the reported method. In this study, compounds 4i and 4f were tested—using a DNA flow cytometry assay—for their effects on the cell cycle of MCF-7 cells (Figure 2). […] Simultaneously, there was a significant reduction in the percentage of the cell population in the G2/M phase—32% and 46% for cells treated with compound 4f or 4i, respectively, compared with controls. The decline in the proportion of cells in the G2/M phase as well as the increase in the cell population in the G0-G1 and S phases indicate a reduction in cell cycle progression in MCF-7 cells.

MCF-7 cells [6] = assay: Annexin-V/PI apoptosis assay; type: cell-based, human; details: MCF-7, 24 h; for Annexin V/PI quadrant, remaining (necrosis): Figure 3, quadrant not given, assigned by elimination; for average increment at the early phase of apoptosis / average increment in late-stage apoptosis: average for the treated groups; for percentage of Annexin V/PI-stained cells: both early and late phases of apoptosis, untreated 1.76%
Protocol: To assess the apoptotic potential, MCF-7 cells were treated with compound 4i or 4f for 24 h and then assayed for Annexin-V/PI (propidium iodide) binding according to the reported protocol. […] At the early phase of apoptosis, the average increment for the treated groups was around 27%, while it was around 14% in late-stage apoptosis.
Apoptosis was measured using an Annexin V-FITC Apoptosis Detection Kit and analyzed using FACSCalibur flow cytometer.

[7] = system: caspase-3/7 in MCF-7 cells; assay: Caspase-3/7 Green flow cytometry assay; type: cell-based, human; details: untreated controls 0.43%
Protocol: Caspases are essential factors in apoptotic cell death since they play a key role in maintaining homeostasis, and their activation induces apoptosis.
Caspase-3/7 activity was calculated using Caspase-3/7 Green Flow Cytometry Assay Kit Catalog # C10427.

Compound | IC50 [1] [µM] | IC50 (lung cancer cells (A549); 48 h) [µM] | IC50 (lung cancer cells (A549); Homo sapiens, A549, 48 h) [µM] | IC50 [2] [µM] | melting point [°C] | IC50 [3] [µM] | SI (selectivity index) [4] | reduction in the percentage of the cell population in the G2/M phase (MCF-7 cells [5]; compared with controls) [%] | increase in the percentage of cells in the G0-G1 phase (MCF-7 cells [5]) | Annexin V/PI quadrant, remaining (necrosis) (MCF-7 cells [6]) [%] | average increment at the early phase of apoptosis (MCF-7 cells [6]) | average increment in late-stage apoptosis (MCF-7 cells [6]) | percentage of Annexin V/PI-stained cells (MCF-7 cells [6]) | levels of active caspase-3/7 expression [7] [%] | IC50 ([4]; MCF-10a normal cell line) [µM] | increase in the percentage of the cell population in the S phase (MCF-7 cells [5]; compared with control) [%]
O=S(=O)(Nc1ncccn1)c1ccc(Nc2ncc(F)c(Nc3ccc4[nH]ncc4c3)n2)cc1 [Compound 4a, 4-((4-((1H-indazol-5-yl)amino)-5-fluoropyrimidin-2-yl)amino)-N-(pyrimidin-2-yl)benzenesulfonamide] | 2.96 ± 0.14 | 3.2 ± 0.18 | 3.3 | 10.3 ± 0.51 | 343 to 345 |  |  |  |  |  |  |  |  |  |  | 
O=S(=O)(Nc1nccs1)c1ccc(Nc2ncc(F)c(Nc3ccc4[nH]ncc4c3)n2)cc1 [Compound 4b, 4-((4-((1H-indazol-5-yl)amino)-5-fluoropyrimidin-2-yl)amino)-N-(thiazol-2-yl)benzenesulfonamide] | 14.3 ± 0.68 |  | 52.9 ± 2.92 | 31.2 ± 1.55 | 285 to 287 |  |  |  |  |  |  |  |  |  |  | 
COc1cc(Nc2ncc(F)c(Nc3ccc4[nH]ncc4c3)n2)cc(OC)c1OC [Compound 4c, 5-fluoro-N4-(1H-indazol-5-yl)-N2-(3,4,5-trimethoxyphenyl)pyrimidine-2,4-diamine] | 29.1 ± 1.4 |  | 58.8 ± 3.25 | 67.8 ± 3.36 | 352 to 354 |  |  |  |  |  |  |  |  |  |  | 
NS(=O)(=O)c1cccc(Nc2ncc(F)c(Nc3ccc4[nH]ncc4c3)n2)c1 [Compound 4d, 3-((4-((1H-indazol-5-yl)amino)-5-fluoropyrimidin-2-yl)amino)benzenesulfonamide] | 4.8 ± 0.23 |  | 13.5 ± 0.74 | 9.63 ± 0.48 | 286 to 288 |  |  |  |  |  |  |  |  |  |  | 
NS(=O)(=O)c1ccc(Nc2ncc(F)c(Nc3ccc4[nH]ncc4c3)n2)cc1 [Compound 4e, 4-((4-((1H-indazol-5-yl)amino)-5-fluoropyrimidin-2-yl)amino)benzenesulfonamide] | 25.1 ± 1.2 |  | 46.6 ± 2.57 | 7.17 ± 0.36 | 303 to 305 |  |  |  |  |  |  |  |  |  |  | 
Fc1cnc(Nc2ccc(N3CCOCC3)cc2)nc1Nc1ccc2[nH]ncc2c1 [Compound 4f, 5-fluoro-N4-(1H-indazol-5-yl)-N2-(4-morpholinophenyl) pyrimidine-2,4-diamine] | 1.63 ± 0.08 |  | 12.8 ± 0.71 | 22.3 ± 1.11 |  | 23.7 ± 1.17 | 14.5 | 32 | around 7% | 3.23 | around 27% | around 14% | about 47% | 19 |  | 
NS(=O)(=O)c1ccc(Nc2nccc(Nc3ccc4[nH]ncc4c3)n2)cc1 [Compound 4g, 4-((4-((1H-indazol-5-yl)amino)pyrimidin-2-yl)amino) benzenesulfonamide] | 4.68 ± 0.22 |  | 11.2 ± 0.62 | 6.91 ± 0.34 |  |  |  |  |  |  |  |  |  |  |  | 
O=S(=O)(Nc1nccs1)c1ccc(Nc2nccc(Nc3ccc4[nH]ncc4c3)n2)cc1 [Compound 4h, 4-((4-((1H-indazol-5-yl)amino)pyrimidin-2-yl)amino)-N-(thiazol-2-yl)benzenesulfonamide] | 21.1 ± 1.01 |  | 23.5 ± 1.3 | 17.3 ± 0.86 | 211 to 213 |  |  |  |  |  |  |  |  |  |  | 
COc1cc(Nc2nccc(Nc3ccc4[nH]ncc4c3)n2)cc(OC)c1OC [Compound 4i, N4-(1H-indazol-5-yl)-N2-(3,4,5-trimethoxyphenyl) pyrimidine-2,4-diamine] | 1.84 ± 0.09 |  | 2.31 ± 0.13 | 4.99 ± 0.25 |  | 29.5 | 16.03 |  | around 7% | 5.92 | around 27% | around 14% | about 47% | 26.5 | 29.5 ± 1.46 | 3
